Experiments:
Assay type in all cases: biochemical
mu opioid receptor (MOR) = mu opioid receptor (MOR) (Homo sapiens, UniProt P35372); assay: GTP-γ-S Binding Assay (SPA-based), antagonist mode vs DAMGO; settings: In vitro antagonism; agonist DAMGO 1 micromolar; Kb by Cheng-Prusoff equation
Protocol: (§1) An SPA—based GTP-γ-S assay format was developed based on previous opioid (Emmerson et al., J. Pharm Exp Ther 278, 1121, 1996; Horng et al., Society for Neuroscience Abstracts, 434.6, 2000) and muscarinic (DeLapp et al., JPET 289, 946, 1999) assay formats. Membranes were re-suspended in 20 mM HEPES, 100 mM NaCl, 5 mM MgCl2, 1 mM DTT, and 1 mM EDTA. Fifty (50) […] of GTP-γ-[35S], compound, membrane suspension (20 microgram/well), and wheat germ agglutinin coated SPA beads (1 mg/well) were added to clear bottom 96 well assay plates. GDP ([…]) was added to the membrane solution prior to addition to the assay plates. Plates were sealed and incubated for four hours at room temperature then placed in a refrigerator overnight to allow the beads to settle. Signal stability at 4° C. was determined to be >60 hours. Plates were warmed to room temperature and counted in a Wallac Microbeta scintillation counter. For antagonist assays, specific agonists were added at the following concentrations: (MOR) DAMGO 1 micromolar, (DOR) DPDPE 30 nM, (KOR) U69593 300 nM. Kb's were determined by Cheng-Prusoff equation (see Cheng and Prusoff, Biochem. Pharmacol. 22, 3099, 1973).

[1] = molecular target: kappa opioid receptor (KOR) (Homo sapiens, UniProt P41145); assay: GTP-γ-S Binding Assay (SPA-based), antagonist mode vs U69593; settings: In vitro antagonism; agonist U69593 300 nM; Kb by Cheng-Prusoff equation
Chain of kappa opioid receptor (KOR) (P41145 whole entry): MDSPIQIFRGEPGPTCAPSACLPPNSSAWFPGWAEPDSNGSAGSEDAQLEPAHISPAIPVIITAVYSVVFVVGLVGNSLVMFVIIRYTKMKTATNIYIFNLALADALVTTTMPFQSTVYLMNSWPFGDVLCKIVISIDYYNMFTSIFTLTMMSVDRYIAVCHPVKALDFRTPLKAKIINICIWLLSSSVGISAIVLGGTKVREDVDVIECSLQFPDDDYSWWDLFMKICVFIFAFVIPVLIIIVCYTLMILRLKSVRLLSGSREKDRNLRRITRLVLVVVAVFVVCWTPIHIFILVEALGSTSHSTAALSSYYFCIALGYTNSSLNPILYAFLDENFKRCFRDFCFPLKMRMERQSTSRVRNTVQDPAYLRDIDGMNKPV
Protocol: as §1

[2] = molecular target: delta opioid receptor (DOR) (Homo sapiens, UniProt P41143); assay: GTP-γ-S Binding Assay (SPA-based), antagonist mode vs DPDPE; settings: In vitro antagonism; agonist DPDPE 30 nM; Kb by Cheng-Prusoff equation
Chain of delta opioid receptor (DOR) (P41143 whole entry): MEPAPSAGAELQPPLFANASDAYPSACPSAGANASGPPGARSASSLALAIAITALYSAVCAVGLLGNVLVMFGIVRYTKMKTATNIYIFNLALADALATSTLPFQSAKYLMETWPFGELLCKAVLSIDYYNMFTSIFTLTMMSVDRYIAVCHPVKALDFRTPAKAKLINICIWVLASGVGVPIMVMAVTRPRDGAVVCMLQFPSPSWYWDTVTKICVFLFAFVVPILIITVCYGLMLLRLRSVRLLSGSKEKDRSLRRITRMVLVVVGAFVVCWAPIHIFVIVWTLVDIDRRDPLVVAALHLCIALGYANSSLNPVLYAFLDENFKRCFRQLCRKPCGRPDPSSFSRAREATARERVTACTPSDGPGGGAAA
Protocol: as §1

Chain of mu opioid receptor (MOR) (P35372 whole entry): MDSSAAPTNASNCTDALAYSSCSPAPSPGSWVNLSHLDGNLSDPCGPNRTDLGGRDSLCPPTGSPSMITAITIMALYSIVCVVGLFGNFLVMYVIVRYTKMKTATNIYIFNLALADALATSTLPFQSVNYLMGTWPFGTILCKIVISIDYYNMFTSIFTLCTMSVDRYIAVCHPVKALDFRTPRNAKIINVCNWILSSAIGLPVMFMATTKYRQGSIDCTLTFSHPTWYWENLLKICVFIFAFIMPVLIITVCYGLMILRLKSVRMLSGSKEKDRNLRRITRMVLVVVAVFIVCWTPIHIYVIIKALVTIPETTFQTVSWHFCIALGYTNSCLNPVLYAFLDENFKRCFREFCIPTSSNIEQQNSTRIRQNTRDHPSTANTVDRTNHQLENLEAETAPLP

Row | SMILES | Kb (mu opioid receptor (MOR)) [µM] | Kb [1] [µM] | Kb [2] [µM]
1 | NC(=O)c1ccc(OC2CCN(CCCc3ccccc3)CC2)cc1 [Example 10, 4-[1-(3-Phenyl-propyl)-piperidin-4-yloxy]-benzamide] | 0.453 | 0.999 | 1.96
2 | NC(=O)c1ccc(OC2CCN(CC3CC3)CC2)nc1 [Example 7, 6-(1-Cyclopropylmethyl-piperidin-4-yloxy)-nicotinamide] | 1.78 | 1.05 | > 7.3
3 | NC(=O)c1ccc(OC2CCN(Cc3ccccn3)CC2)nc1 [Example 6, 6-(1-Pyridin-2-ylmethyl-piperidin-4-yloxy)-nicotinamide] | > 1.8 | 0.43 | > 7.3
4 | NC(=O)c1ccc(OC2CCC(NCCC3CCOCC3)CC2)nc1 (racemic) [Example 1, ±6-{4-[2-(Tetrahydro-pyran-4-yl)-ethylamino]-cyclohexyloxy}-nicotinamide] | 0.566 | 0.601 | 0.819
5 | NC(=O)c1ccc(OC2CCN(Cc3cc4ccccc4[nH]3)CC2)nc1 [Example 8, 6-[1-(1H-Indol-2-ylmethyl)-piperidin-4-yloxy]-nicotinamide] | > 1.85 | 0.937 | > 7.3
6 | NC(=O)c1ccc(OC2CCN(Cc3ccccc3)CC2)cc1 [Example 9, 4-(1-Benzyl-piperidin-4-yloxy)-benzamide] | 1.12 | 0.93 | > 7.3
7 | CC(C)CCNC1CCC(Oc2ccc(C(N)=O)cn2)CC1 (racemic) [Example 2, ±6-[4-(3-Methyl-butylamino)-cyclohexyloxy]-nicotinamide] | 0.594 | 0.62 | 0.996
